Consider 25 molecules from US10604509B2, “Nrf2 regulators” (GlaxoSmithKline Intellectual Property Development Limited, priority 2015, dated 2020).

Where a name gives a salt, the structure may show the parent alone.

The test system of the first experiment is NQO1 specific enzyme activity in BEAS-2B cells. Kind of experiment: BEAS-2B NQO1 MTT assay. The class given is cell-based. The conditions noted are these: BEAS-2B cells, 48 hours with compound, MTT readout; read-out: EC50 of NQO1 specific activity induction. A digest of the protocol: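 BEAS-2B cells treated with compound 48 h at 37° C, 5% CO2, then lysed; NQO1 activity in lysate measured kinetically by MTT cocktail at Absorbance 570 nm over 30 min. EC50 for induction from Delta OD/min versus log concentration, 3-parameter fit; Cell Titer Glo run on lysate aliquot.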
Consider `CC[C@@H]1CN(Cc2cc([C@H](CC(=O)O)c3ccc4c(nnn4CC)c3Cl)ccc2C)Cc2ccccc2O1` [Example 66, (S)-3-(4-Chloro-1-ethyl-1H-benzo[d][1,2,3]triazol-5-yl)-3-(3-(((R)-2-ethyl-2,3-dihydrobenzo[f][1,4]oxazepin-4(5H)-yl)methyl)-4-methylphenyl)propanoate, Sodium Salt], for which the EC50 is 0.01 to 0.1 µM.
`CC[C@@H]1CN(Cc2cc(C(CCc3cn(CC)nn3)C(C)(C)C(=O)O)ccc2C)Cc2ncccc2O1` (single isomer, unassigned) [Example 252]: the concentration giving a half-maximal response (EC50) lay in the range of 0.01 to 0.1 µM.
As for `CCn1cc(CCC(c2ccc(C)c(CN3Cc4cnccc4OC(C)(C)C3)c2)C(C)C(=O)O)nn1` (single isomer, unassigned) [Example 228, 3-(3-((2,2-Dimethyl-2,3-dihydropyrido[3,4-f][1,4]oxazepin-4(5H)-yl)methyl)-4-methylphenyl)-5-(1-ethyl-1H-1,2,3-triazol-4-yl)-2-methylpentanoic acid], the EC50 was 0.1 to 1 µM.
On the same count and under the same terms, the figure for `CC[C@@H]1CN(Cc2cc([C@H](c3ccc4c(nnn4CC)c3C)[C@H](C)C(=O)O)ccc2C)Cc2ccccc2O1` [Example 101, Ammonium (2S,3R)-3-(3-(((R)-2-ethyl-2,3-dihydrobenzo[f][1,4]oxazepin-4(5H)-yl)methyl)-4-methylphenyl)-3-(1-ethyl-4-methyl-1H-benzo[d][1,2,3]triazol-5-yl)-2-methylpropanate] is < 0.001 µM.

The experiment is the same for the next values; noted with them: Homo sapiens, BEAS-2B, 48 h, BEAS-2B cells, 48 hours with compound, MTT readout; read-out: EC50 of NQO1 specific activity induction.
As for `Cc1ccc(C(c2ccc3c(nnn3C)c2C)C(C)(C)C(=O)O)cc1Cn1ccnc1CC1CCOCC1` (stereo not shown) [Example 145, 3-(1,4-Dimethyl-1H-benzo[d][1,2,3]triazol-5-yl)-2,2-dimethyl-3-(4-methyl-3-((2-((tetrahydro-2H-pyran-4-yl)methyl)-1H-imidazol-1-yl)methyl)phenyl) propanoic acid, trifluoroacetic acid salt], the EC50 is 0.1 to 1 µM.
For `CC[C@@H]1CN(Cc2cc(C(CC(=O)O)c3ccc4c(nnn4C)c3C)ccc2C)Cc2ccccc2O1` (stereo partly drawn) [Example 73, 3-(1,4-Diemthyl-1H-benzo[d][1,2,3]triazol-5-yl)-3-(3-(((R)-2-ethyl-2,3-dihydrobenzo[f][1,4]oxazepin-4(5H)-yl)methyl)-4-methylphenyl)propanonic acid, formic acid salt], the EC50 lay within 0.1 to 1 µM.
With `CCC1CN(Cc2cc(C(c3ccc4c(nnn4C)c3C)C(C)(C)C(=O)O)ccc2C)CCC(C2CC2)O1` (stereo not shown) [Example 246, 3-(3-((7-Cyclopropyl-2-ethyl-1,4-oxazepan-4-yl)methyl)-4-methylphenyl)-3-(1,4-dimethyl-1H-benzo[d][1,2,3]triazol-5-yl)-2,2-dimethylpropanoic Acid], the EC50 lay within 0.1 to 1 µM.
As for `CC[C@@H]1CN(Cc2cc(C(CC(=O)O)c3cc(OC)c4c(nnn4C)c3C)ccc2C)Cc2ccccc2O1` (stereo partly drawn) [Example 45, 3-(3-(((R)-2-Ethyl-2,3-dihydrobenzo[f][1,4]oxazepin-4(5H)-yl)methyl)-4-methylphenyl)-3-(7-methoxy-1,4-dimethyl-1H-benzo[d][1,2,3]triazol-5-yl)propanoic Acid, Formic Acid Salt], the EC50 fell in the range of 0.1 to 1 µM.
The same measure, in the same setting: the figure for `CC[C@@H]1CN(Cc2cc([C@@H](c3ccc4c(nnn4C)c3C)C(C)(C)C(=O)O)ccc2C)Cc2ncccc2O1` [Example 218, (S)-3-(1,4-Dimethyl-1H-benzo[d][1,2,3]triazol-5-yl)-3-(3-(((R)-2-ethyl-2,3-dihydropyrido[2,3-f][1,4]oxazepin-4(5H)-yl)methyl)-4-methylphenyl)-2,2-dimethylpropanoic Acid, Trifluoroacetate] is 0.001 to 0.01 µM.
Take `CCn1nnc2c(C)c([C@H](c3ccc(C)c(CN4Cc5ccccc5OC(C)(C)C4)c3)[C@@H](C)C(=O)O)ccc21` [Example 208, (2R,3S)-3-(3-((2,2-Dimethyl-2,3-dihydrobenzo[f][1,4]oxazepin-4(5H)-yl)methyl)-4-methylphenyl)-3-(1-ethyl-4-methyl-1H-benzo[d][1,2,3]triazol-5-yl)-2-methylpropanoic acid, 2 Trifluoroacetic Acid Salt]: the EC50 fell in the range of 0.001 to 0.01 µM.
As to `CC[C@@H]1CN(Cc2cc([C@H](CC(=O)O)c3ccc4c(nnn4C)c3C)ccc2Cl)Cc2ncccc2O1` [Example 263, (S)-3-(4-chloro-3-(((R)-2-ethyl-2,3-dihydropyrido[2,3-f][1,4]oxazepin-4(5H)-yl)methyl)phenyl)-3-(1,4-dimethyl-1H-benzo[d][1,2,3]triazol-5-yl)propanoic acid], the EC50 was 0.01 to 0.1 µM.
In the case of `Cc1ccc(C(CC(=O)O)c2ccc3c(nnn3C)c2C)cc1Cn1ccnc1CC1CCOCC1` (stereo not shown) [Example 129, 3-(1,4-Dimethyl-1H-Benzo[d][1,2,3]triazol-5-yl)-3-(4-methyl-3-((2-((tetrahydro-2H-pyran-4-yl)methyl)-1H-imidazol-1-yl)methyl)phenyl)propanoic Acid], the EC50 was in the range of 0.1 to 1 µM.
For the molecule `CCn1nnc2c(Cl)c([C@H](CC(=O)O)c3ccc(C)c(CN4Cc5ccccc5OC(C)(C)C4)c3)ccc21` [Example 55, (R)-3-(4-Chloro-1-ethyl-1H-benzo[d][1,2,3]triazol-5-yl)-3-(3-((2,2-dimethyl-2,3-dihydrobenzo[f][1,4]oxazepin-4(5H)-yl)methyl)-4-methylphenyl)propanoate, Sodium salt], the EC50 lay in the range of 0.01 to 0.1 µM.
As to `CC[C@@H]1CN(Cc2cc(C(CC(=O)O)c3ccc4c(nnn4C)c3C)ccc2C)Cc2ccc(C)cc2O1` (stereo partly drawn) [Example 85, Ammoniumn 3-(1,4-Dimethyl-1H-benzo[d][1,2,3]triazol-5-yl)-3-(3-(((R)-2-ethyl-8-methyl-2,3-dihydrobenzo[f][1,4]oxazepin-4(5H)-yl)methyl)-4-methyphenyl)propanoate], the EC50 is 0.1 to 1 µM.
In the case of `CC[C@@H]1CN(Cc2cc(C(CC(=O)O)c3ccc4c(nnn4C)c3C)ccc2C)Cc2cccc(C)c2O1` (stereo partly drawn) [Example 76, Ammonium 3-(1,4-Dimethyl-1H-benzo[d][1,2,3]triazol-5-yl)-3-(3-(((R)-2-ethyl-9-methyl-2,3-dihydrobenzo[f][1,4]oxazepin-4(5H)-yl)methyl)-4-methylphenyl)propanate], the EC50 is 0.1 to 1 µM.
Same read-out and setting: the figure for `CC[C@@H]1CN(Cc2cc(C(CC(=O)O)c3ccc4c(nnn4C)c3C)ccc2C)Cc2cnccc2O1` (stereo partly drawn) [Example 86, 3-(1,4-Dimethyl-1H-benzo[d][1,2,3]triazol-5-yl)-3-(3-(((R)-2-ethyl-2,3-dihydropyrido[3,4-f][1,4]oxazepin-4(5H)-yl)methyl)-4-methylphenyl)propanoic acid] is 0.1 to 1 µM.
For the molecule `CCOC(=O)C(C)(C)[C@@H](c1ccc(C)c(CN2Cc3cnccc3O[C@H](CC)C2)c1)c1ccc2c(nnn2C)c1C` [Example 257, (S)-ethyl 3-(1,4-dimethyl-1H-benzo[d][1,2,3]triazol-5-yl)-3-(3-(((R)-2-ethyl-2,3-dihydropyrido[3,4-f][1,4]oxazepin-4(5H)-yl)methyl)-4-methylphenyl)-2,2-dimethylpropanoate], the concentration giving a half-maximal response (EC50) lay in the range of 0.1 to 1 µM.
Same read-out and setting: the figure for `CC[C@@H]1CN(Cc2cc(C(CC(=O)O)c3ccc4c(nnn4C)c3C)ccc2C)Cc2cc(F)ccc2O1` (stereo partly drawn) [Example 78, 3-(1,4-Dimethyl-1H-benzo[d][1,2,3]triazol-5-yl)-3-(3-(((R)-2-ethyl-7-fluoro-2,3-dihydrobenzo[f][1,4]oxazepin-4(5H)-yl)methyl)-4-methylphenyl)propanoic acid, formic acid salt] is 1 to 10 µM; for `CC[C@@H]1CN(Cc2cc([C@H](c3ccc4c(nnn4C)c3C)C(C)(C)C(=O)O)ccc2C)Cc2ccccc2O1` [Example 27, (R)-3-(1,4-Dimethyl-1H-benzo[d][1,2,3]triazol-5-yl)-3-(3-(((R)-2-ethyl-2,3-dihydrobenzo[f][1,4]oxa-zepin-4(5H)-yl)methyl)-4-methylphenyl)-2,2-dimethylpropanoic acid] it is 0.1 to 1 µM.
`CCn1nnc2c(C)c(C(CC(=O)O)c3ccc(C)c(CN4Cc5ccccc5O[C@@H](C)C4)c3)ccc21` (stereo partly drawn) [Example 97, 3-(1-Ethyl-4-methyl-1H-benzo[d][1,2,3]triazol-5-yl)-3-(4-methyl-3-(((S)-2-methyl-2,3-dihydrobenzo[f][1,4]oxazepin-4(5H)-yl)methyl)phenyl)propanoic Acid, Formic Acid Salt]: the EC50 fell in the range of 0.1 to 1 µM.
The same measure, in the same setting: the figure for `Cc1ccc(C(CC(=O)O)c2ccc3c(nnn3C)c2C)cc1CN1CCc2cnc(C(C)C)nc2C1` (stereo not shown) [Example 11, Ammonium 3-(1,4-dimethyl-1H-benzo[d][1,2,3]triazol-5-yl)-3-(3-((2-isopropyl-5,6-dihydropyrido[3,4-d]pyrimidin-7(8H)-yl)methyl)-4-methylphenyl)propanoate] is 1 to 10 µM; for `Cc1c(C(CC(=O)O)c2ccc(F)c(CN3Cc4ncccc4OC(C)(C)C3)c2)ccc2c1nnn2C` (single isomer, unassigned; isomer 1) [Example 261] it is 0.1 to 1 µM; for `Cc1ccc(C(CC(=O)O)c2ccc3c(nnn3C)c2C)cc1CN1CCOc2ccc(C#N)cc2C1` (stereo not shown) [Example 14, Ammonium 3-(3-((7-cyano-2,3-dihydrobenzo[f][1,4]oxazepin-4(5H)-yl)methyl)-4-methylphenyl)-3-(1,4-dimethyl-1H-benzo[d][1,2,3]triazol-5-yl)propanoate] it is 1 to 10 µM.
With `Cc1ccc(C(CC(=O)O)c2ccc3c(nnn3C)c2C)cc1Cn1ccnc1CN1CCCC1` (stereo not shown) [Example 153, 3-(1,4-Dimethyl-1H-benzo[d][1,2,3]triazol-5-yl)-3-(4-methyl-3-((2-(pyrrolidin-1-ylmethyl)-1H-imidazol-1-yl)methyl)phenyl)propanoic Acid, Formic Acid Salt], the EC50 lay within 1 to 10 µM.
With `Cc1ccc(C(c2ccc3c(nnn3C)c2C)C(C)(C)C(=O)O)cc1CN1CCOc2ccccc2C1` (stereo not shown) [Example 44, 3-(3-((2,3-Dihydrobenzo[f][1,4]oxazepin-4(5H)-yl)methyl)-4-methylphenyl)-3-(1,4-dimethyl-1H-benzo[d][1,2,3]triazol-5-yl)-2,2-dimethylpropanoic Acid, Formic Acid Salt], the 50% effective concentration (EC50) fell in the range of 0.01 to 0.1 µM.
